Assay results reported in patent publication US9428732B2, “Compositions and methods for differentiating pluripotent stem cells into primitive blood cells and uses thereof” (Primorigen Biosciences, Inc., priority 2011, dated 2016).

Assays:
[1] = test system: pluripotent lines (ES, iPS); experiment: Additional molecules added to Differentiation Medium 1, FACS and flow cytometry; format: cell-based, human; conditions: for total number of cells: added to Differentiation Medium 1 (contains DEAB): LG101506 1 uM, sodium selenite 100 nM, valproic acid 1 mM
Procedure: (§1) Cells from the differentiation cultures were collected at time points indicated and washed in phosphate-buffered saline (PBS) supplemented with 2% FBS. Adherent cells were individualized using TrypLE (Life Technologies, Carlsbad Calif.), passed through a 27.5-gauge needle and filtered through a 40-70 μm cell strainer (BD Falcon, San Diego, Calif., www.bdbiosciences.com). Cells were treated with 7-aminoactinomycin D (7AAD) before analysis, and positive cells were gated out of results. Cells were stained with fluorescence-conjugated antibodies for the hematopoietic stem and progenitor cell markers CD45, CD43, CD34, CD38, CD90; CD45RA. Cells were analyzed on a FACS Canto (BD, Franklin Lakes, N.J., www.bd.com).
We have completed a number of studies to establish other molecules that may further improve the yields and phenotypes of hematopoietic cells derived using Differentiation Medium 1. Tested compounds were Cripto, LY2228820, valproic acid (VPA), sodium selenite, and butein. In all instances, each molecule below was supplemented into Differentiation Medium 1 to study their effect in concert with DEAB. All control experiments for these molecules were cells differentiated using Differentiation Medium 1 (which already contains DEAB). The data we report below for these molecules illustrates how they may improve the yield of hematopoietic progenitors and phenotypic stem cells measured by FACS, flow cytometry, and CFU assays. […] The in vivo engraftment studies to confirm this for these molecules are underway.
(§2) It has been shown that DS DNA breaks reduce transplant efficiency of repopulating HSCs. In vitro derived blood from pluripotent stem cell has high levels of DNA damage. Inhibition of DNA damage and the DNA damage response, from reactive oxygen species (ROS) or other sources of damage (radiation, chemical etc) in pluripotent stem cell differentiation systems will decrease DNA damage and increase hematopoietic cell number, repopulating ability and increase the differentiation potential of the cells (i.e. expansion of downstream lineages). See Yahata et al. Blood, 2011, 118(11):2941-50). […] Adding sodium selenite (100 nM) and butein (10 uM) independently to Differentiation Medium 1 increased enzyme activity for protection against reactive oxygen species (ROS). […] See FIGS. 11A and 11B for sodium selenite and FIGS. 12A and 12B for butein. These studies are being expanded into dose response experiments from which we expect to identify optimal concentrations.
From the pluripotent stem cells differentiated with Differentiation Medium 1 supplemented with 1 mM of valproic acid, we see that all CD34+CD38− cells were 100% CD90+. […] Engraftment studies as described are also being conducted.

[2] = test system: pluripotent stem cells (H1 ES cells and CB1 iPS cells); experiment: CFU assay of cells differentiated in Differentiation Medium 1 plus additional molecule; format: cell-based, human; conditions: for size of CFU colonies: in the present system
Procedure: FIG. 14 depicts myeloid CFU cell count data for cells differentiated from pluripotent stem cells (H1 ES cells and CB1 iPS cells) in the presence of DEAB and each of Cripto (500 ng/ml), LY2228820 (shown as “LY222820”, 100 nM), Activin A, valproic acid (VPA, 1 mM), sodium selenite (100 nM), and butein (10 μM).
The differentiation cultures were trypsinized at the indicated time points and single-cell suspensions were generated following trypsinization. For the Colony Forming Unit (CFU) assays using methyl cellulose cultures, 25% of the cells were plated in 2 ml of MethoCult H4435 (STEMCELL Technologies, Vancouver, BC) in six-well plates. Alternatively, sorted CD45+, CD43+, CD34+, 7AAD-cells were sorted and plated at 500 cells per 2 ml Methocult media. Cells were incubated for 14 days in a humidified incubator at 37° C. with 5% CO2 and evaluated for colonies by bright-field microscopy (Zeiss (Oberkochen, Germany, www.zeiss.com) Axiovert 200 with a Zeiss Axiocam), Cells were resuspended in PBS supplemented with 2% FBS. For the lymphoid myeloid differentiation assays, either CD45+, CD43+, CD34+, 7AAD-hematopoietic progenitors, or CD45+, CD43+, CD34+, CD38−, CD90+, CD45RA− phenotypic HSCs were plated at 20-40 cells per well onto OP9 and OP9delta feeder lines for B-cell and T-cell differentiation, respectively, as previously described (Nozad Charoudeh H, Tang Y, Cheng M, Cilio C M, Jacobsen S E, Sitnicka E., Identification of an NK/T cell-restricted progenitor in adult bone marrow contributing to bone marrow- and thymic-dependent NK cell, Blood, 2010 Jul. 15; 116(2):183-92. NK cell differentiation as well as myeloid cell differentiation was also detected in this differentiation system. FACS analysis was performed 4-6 weeks after plating for markers of lymphoid cell differentiation with the markers indicated. Similar cell sortings were performed for single cell Terasaki plate assays of myeloid differentiation and expansion using StemSpan media (STEMCELL Technologies, Vancouver, BC) supplemented with TPO, SCF, FLT3, IL3, GM-CSF. Colony size was estimated by microscopy.
We have completed a number of studies to establish other molecules that may further improve the yields and phenotypes of hematopoietic cells derived using Differentiation Medium 1. Tested compounds were Cripto, LY2228820, valproic acid (VPA), sodium selenite, and butein. In all instances, each molecule below was supplemented into Differentiation Medium 1 to study their effect in concert with DEAB. […] The data we report below for these molecules illustrates how they may improve the yield of hematopoietic progenitors and phenotypic stem cells measured by FACS, flow cytometry, and CFU assays. […]

[3] = test system: NOD.Cg-Prkdc^scidI12rg^tm1Wjl/SzJ mice; experiment: Pluripotent stem cell derived hematopoietic cell transplantation, engraftment; format: in vivo; conditions: Differentiation Medium 1 (containing DEAB) supplemented with the molecule; studies underway, predicted
Procedure: Single-cell suspensions of the pluripotent stem cell differentiation cultures described herein were injected into sublethally irradiated (325 rad) NOD.Cg-Prkdc^scidI12rg^tm1Wjl/SzJ mice (JAX, Bar Harbor, Me., www.jax.org) via tail vein injections, intrafemoral injection, or cardiac injection. Peripheral blood was harvested at times indicated via tail vein or retro-orbital eye bleed or cardiac puncture on anesthetized mice. Bone marrow and spleen cells were harvested at the terminal stage of the transplant experiment. Bone marrow cells were isolated via pestle mortar crushing of bone followed by rinsing and 70 micron filtering. Cells were analyzed by FACS, CFU assay, or transplanted serially into secondary and tertiary mice. FACS analysis for the human pan hematopoietic marker CD45, progenitor marker CD34, myeloid markers CD11b, CD15, CD33 and lymphoid markers CD19, CD56 and CD132, and erythroid markers CD235. When erythrocytes were not being analyzed, the red cells were lysed using ammonium chloride solution (0.8% NH4Cl with 0.1 mM EDTA) (STEMCELL Technologies, Vancouver, BC), spun, and stained with antibodies against the above-mentioned markers. All animal experiments were conducted in accordance with Institutional Animal ethical use protocols.
We have confirmed short-term engraftment and reconstitution ability of hPSC-derived HSCs produced as described in Example 1, by injecting them into sublethally irradiated (325 rad) NOD.Cg-Prkdc^sicdI12rg^tm1Wjl/SzJ mice (JAX, Bar Harbor, Me., www.jax.org) via tail vein injections, intrafemoral injection, or cardiac injection. We transplanted NOD.Cg-Prkdc^scidI12rg^tm1Wjl/SzJ mice with 3×10^6 unsorted cells or 5000 FACS sorted phenotypic HSCs (CD45+, CD43+, CD34+, CD38−, CD90+, CD45RA−) from differentiations using Differentiation Medium 1 medium not including with DEAB (Control) and Differentiation Medium 1 medium including DEAB (DEAB HSCs). […] Typical published values range from 0.1%-1.0%, including those obtained from our control where DEAB was not used to generate the HSCs (0.34%±0.1%).

H1 ES cells = experiment: LY2228820 added to Differentiation Medium 1, flow cytometry, ES cells; format: cell-based, human; conditions: 100 nM LY2228820; FIG. 8A
Procedure: as §1
(§3) We conducted experiments to determine whether the p38 inhibitor LY2228820 could further increase hematopoietic progenitor and phenotypic stem cell outputs by acting in concert with DEAB when added to Differentiation Medium 1. Human ES and iPS cells were differentiated to progenitors and phenotypic stem cells as described, except 100 nM of LY2228820 was added to Differentiation Medium 1. Cells were then harvested as described and subjected to flow cytometry and FACS analysis using fluorescently labeled antibodies for CD45, CD43, CD34, CD38, CD90, CD45RA as described. […]

iPS cells = experiment: LY2228820 added to Differentiation Medium 1, flow cytometry, iPS cells; format: cell-based, human; conditions: 100 nM LY2228820; FIG. 8B
Procedure: as §1, §3

[4] = test system: pluripotent stem cell differentiation cultures; experiment: Enzyme activity for protection against reactive oxygen species; format: cell-based, human; conditions: added independently to Differentiation Medium 1: sodium selenite 100 nM, butein 10 uM
Source text: as §2

human ES cells = experiment: Norepinephrine added to Differentiation Medium 1, flow cytometry; format: cell-based
Procedure: as §1
We conducted experiments to reveal if human embryo AGM region-harvested cells generate neurospheres in culture to confirm the presence of neural crest cells in the AGM region. We further completed some experiments to identify a component secreted from the neural crest cells that may be involved in definitive hematopoiesis. We harvested human embryo AGM region tissue and, using fluorescent labeled antibodies specific for neural crest cells, were able to identify the presence of neural crest cells in the AGM hematopoietic niche. […] Hypothesizing norepinephrine as a potential effector secreted from the neural crest cells, we tested it for its ability to further increase progenitor and phenotypic stem cell yields when added to Differentiation Medium 1 at a concentration of 10 uM or 300 uM. Human ES and iPS cells were differentiated to progenitors and phenotypic stem cells with Differentiation Medium 1 as described. The only difference is that 10 uM or 300 uM of norepinephrine was added to Differentiation Medium 1. Cells were then harvested as described and subjected to flow cytometry and FACS analysis using fluorescently labeled antibodies for CD45, CD43, CD34, CD38, CD90, CD45RA as described. […] Given the verified presence of neural crest cells in the AGM niche, we are confident that these cells play a role in establishing definitive hematopoiesis in the developing embryo. As such, long term engraftment and reconstitution ability of hematopoietic progenitors and phenotypic stem cells produced from iPS and ES cells differentiated with Differentiation Medium 1 plus norepinephrine as described above are currently underway. The engraftment and reconstitution studies will be conducted as described by the protocol outlined above in the Materials and Methods.

Molecule: C/C(=C/C=C/C(C)=C/C(=O)O)c1cc(C(C)(C)C)cc(C(C)(C)C)c1OCC(F)F [LG101506]
- total output of CD90+ cells ([1]; LG101506 1 uM in Differentiation Medium 1, ES, iPS): increases
- total number of cells ([1]; butein 10 uM): increased
- CFU cellularity and output [2]: enhances
- suitability of generated phenotypic HSC cells for in vivo engraftment [3]: suitable for successful in vivo engraftment

Molecule: CC(C)(C)Cn1c(N)nc2ccc(-c3[nH]c(C(C)(C)C)nc3-c3ccc(F)cc3)nc21 [LY2228820]
- increase of phenotypic hematopoietic stem cell phenotype (CD45+, CD43+, CD34+, CD38−, CD90+, CD45RA−) over DEAB-containing Differentiation Medium 1 control (H1 ES cells): ~20%
- levels of the intermittent progenitor phenotype (CD45+, CD43+, CD34+, CD38−) (H1 ES cells): unaffected
- numbers of all cells with the progenitor and phenotypic stem cell phenotypes (iPS cells): increased
- size of CFU colonies [2]: increases CFU size
- suitability of generated phenotypic HSC cells for in vivo engraftment [3]: suitable for successful in vivo engraftment

Molecule: O=C(/C=C/c1ccc(O)c(O)c1)c1ccc(O)cc1O [butein]
- CD34+, CD38− cells ([1]; added independently to Differentiation Medium 1: sodium selenite 100 nM, butein 10 uM): increased
- total number of cells ([1]; butein 10 uM): increased
- enzyme activity for protection against reactive oxygen species (ROS) [4]: increased
- suitability of generated phenotypic HSC cells for in vivo engraftment [3]: suitable for successful in vivo engraftment

Molecule: NC[C@H](O)c1ccc(O)c(O)c1 [norepinephrine]
- increase in HSC number (human ES cells; hES-derived hematopoietic cells, norepinephrine in Differentiation Medium 1): 150%
- fold improvement of numbers of phenotypic hematopoietic stem cells (CD45+, CD34+, CD43+, CD38−, CD90+, CD45RA−) (human ES cells; norepinephrine 10 uM or 300 uM in Differentiation Medium 1, FIG. 9C): statistically significant increases
- total viable blood cells (CD45+) (human ES cells; norepinephrine 10 uM or 300 uM, FIG. 9A): insignificant improvements
- intermediate cells (CD45+, CD43+, CD34+, CD38−) (human ES cells; norepinephrine 10 uM or 300 uM, FIG. 9B): insignificant improvements
- colony forming ability ([2]; hES-derived hematopoietic cells, norepinephrine, data not shown): has an effect
- suitability of generated phenotypic HSC cells for in vivo engraftment [3]: suitable for successful in vivo engraftment

Molecule: CCCC(CCC)C(=O)O [valproic acid]
- CD34+CD38− cells that were CD90+ ([1]; Differentiation Medium 1 supplemented with 1 mM of valproic acid): 100%
- total number of cells ([1]; butein 10 uM): increased
- suitability of generated phenotypic HSC cells for in vivo engraftment [3]: suitable for successful in vivo engraftment

B1: Cripto: protein expressed in hypoxic endosteal niche cells (protein, UniProt P13385 31-150, looked up)
Protein Cripto: LGHQEFARPSRGYLAFRDDSIWPQEEPAIRPRSSQRVPPMGIQHSKELNRTCCLNGGTCMLGSFCACPPSFYGRNCEHDVRKENCGSVPHDTWLPKKCSLCKCWHGQLRCFPQAFLPGCD
- size of CFU colonies [2]: increases the size
- suitability of generated phenotypic HSC cells for in vivo engraftment [3]: suitable for successful in vivo engraftment
